Reference: article PMC8508710, “Biochemical Characterization of 13-Lipoxygenases of Arabidopsis thaliana” (International Journal of Molecular Sciences, 2021)

How the values were obtained:
[1] = molecular target: T1, LOX3 (Arabidopsis thaliana, UniProt Q9LNR3); experiment: LOX3 activity, spectrophotometric (conjugated diene formation at 234 nm); details: for Mode of inhibition: Michaelis–Menten, Lineweaver–Burk and Dixon plots; for Photometry Relative activity (%) LOX3: enzyme 0.225 µg/µL incubated 10 min 30 °C with 280 µM chemical, 4.8 µM LeA, 50 mM Tris-HCl pH 7.2, vs solvent control; for Relative Activity (%) LOX3: E. coli lysate in 50 mM TRIS pH 8.0 diluted 1:10, 50 mM HEPES pH 8.0 + 1 mM metal salt, LeA, 234 nm
T1 sequence (Q9LNR3 71-919): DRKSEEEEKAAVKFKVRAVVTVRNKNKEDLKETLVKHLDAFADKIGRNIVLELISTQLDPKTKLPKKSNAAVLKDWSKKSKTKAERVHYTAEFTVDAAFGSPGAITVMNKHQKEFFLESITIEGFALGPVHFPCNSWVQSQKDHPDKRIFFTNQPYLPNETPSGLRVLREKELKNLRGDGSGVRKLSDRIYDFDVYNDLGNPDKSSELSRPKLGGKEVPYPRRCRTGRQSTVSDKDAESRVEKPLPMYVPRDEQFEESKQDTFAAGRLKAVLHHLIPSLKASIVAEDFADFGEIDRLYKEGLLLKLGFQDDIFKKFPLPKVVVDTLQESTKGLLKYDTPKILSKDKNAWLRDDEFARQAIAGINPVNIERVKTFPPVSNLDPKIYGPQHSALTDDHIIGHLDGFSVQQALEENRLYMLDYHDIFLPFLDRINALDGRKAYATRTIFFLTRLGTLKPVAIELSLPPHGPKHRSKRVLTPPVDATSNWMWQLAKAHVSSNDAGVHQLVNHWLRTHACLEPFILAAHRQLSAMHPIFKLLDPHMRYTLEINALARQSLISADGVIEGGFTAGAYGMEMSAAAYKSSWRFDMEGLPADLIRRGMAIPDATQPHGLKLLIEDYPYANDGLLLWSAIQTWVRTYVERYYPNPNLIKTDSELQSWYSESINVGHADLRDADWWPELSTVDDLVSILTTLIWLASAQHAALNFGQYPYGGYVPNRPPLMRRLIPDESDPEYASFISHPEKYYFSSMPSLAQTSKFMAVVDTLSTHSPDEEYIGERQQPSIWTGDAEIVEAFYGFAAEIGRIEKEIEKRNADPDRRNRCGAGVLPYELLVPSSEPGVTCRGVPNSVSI

[2] = molecular target: T2, LOX6 (Arabidopsis thaliana, UniProt Q9CAG3); experiment: LOX6 activity, spectrophotometric (conjugated diene formation at 234 nm); details: for Photometry Relative activity (%) LOX6: enzyme 0.225 µg/µL incubated 10 min 30 °C with 280 µM chemical, 4.8 µM LeA, 50 mM Tris-HCl pH 7.2, vs solvent control; for Relative Activity (%) LOX6: E. coli lysate in 50 mM TRIS pH 8.0 diluted 1:10, 50 mM HEPES pH 8.0 + 1 mM metal salt, LeA, 234 nm
T2 sequence (Q9CAG3 41-917): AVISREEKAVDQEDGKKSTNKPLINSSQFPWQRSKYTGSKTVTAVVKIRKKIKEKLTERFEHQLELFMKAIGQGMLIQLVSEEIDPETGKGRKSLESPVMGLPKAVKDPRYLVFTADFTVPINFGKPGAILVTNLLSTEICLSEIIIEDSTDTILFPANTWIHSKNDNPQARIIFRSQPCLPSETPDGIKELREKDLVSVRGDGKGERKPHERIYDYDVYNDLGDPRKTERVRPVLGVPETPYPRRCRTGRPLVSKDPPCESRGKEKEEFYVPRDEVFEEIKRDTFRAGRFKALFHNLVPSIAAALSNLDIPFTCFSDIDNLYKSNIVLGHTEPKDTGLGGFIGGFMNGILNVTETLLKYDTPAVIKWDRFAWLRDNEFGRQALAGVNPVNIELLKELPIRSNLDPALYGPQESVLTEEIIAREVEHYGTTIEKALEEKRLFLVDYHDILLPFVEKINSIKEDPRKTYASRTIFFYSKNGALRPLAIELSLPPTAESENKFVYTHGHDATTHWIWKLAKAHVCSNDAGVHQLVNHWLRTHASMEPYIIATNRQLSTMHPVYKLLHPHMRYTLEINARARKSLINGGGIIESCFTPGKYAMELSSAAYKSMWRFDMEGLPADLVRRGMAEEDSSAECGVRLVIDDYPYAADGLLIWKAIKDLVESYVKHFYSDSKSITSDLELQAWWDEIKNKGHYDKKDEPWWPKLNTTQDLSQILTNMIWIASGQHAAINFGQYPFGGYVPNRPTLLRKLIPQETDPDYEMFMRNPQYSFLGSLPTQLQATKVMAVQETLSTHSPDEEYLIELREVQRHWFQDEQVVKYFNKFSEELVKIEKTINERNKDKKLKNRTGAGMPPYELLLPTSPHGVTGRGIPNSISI

[3] = molecular target: T3, LOX2 (Arabidopsis thaliana, UniProt P38418); experiment: LOX2 activity, spectrophotometric (conjugated diene formation at 234 nm); details: for Mode of inhibition: Lineweaver–Burk plot, 12-OPDA tested at 226 µM; for Photometry Relative activity (%) LOX2: enzyme 0.225 µg/µL incubated 10 min 30 °C with 280 µM chemical, 4.8 µM LeA, 50 mM Tris-HCl pH 7.2, vs solvent control; for Relative Activity (%) LOX2: E. coli lysate in 50 mM TRIS pH 8.0 diluted 1:10, 50 mM HEPES pH 8.0 + 1 mM metal salt, LeA, 234 nm; for LOX2 activity in presence of Cd2+: 9 µM LeA, 20 mM HEPES pH 8.0, control 0.8 ± 0.2
T3 sequence (P38418 71-896): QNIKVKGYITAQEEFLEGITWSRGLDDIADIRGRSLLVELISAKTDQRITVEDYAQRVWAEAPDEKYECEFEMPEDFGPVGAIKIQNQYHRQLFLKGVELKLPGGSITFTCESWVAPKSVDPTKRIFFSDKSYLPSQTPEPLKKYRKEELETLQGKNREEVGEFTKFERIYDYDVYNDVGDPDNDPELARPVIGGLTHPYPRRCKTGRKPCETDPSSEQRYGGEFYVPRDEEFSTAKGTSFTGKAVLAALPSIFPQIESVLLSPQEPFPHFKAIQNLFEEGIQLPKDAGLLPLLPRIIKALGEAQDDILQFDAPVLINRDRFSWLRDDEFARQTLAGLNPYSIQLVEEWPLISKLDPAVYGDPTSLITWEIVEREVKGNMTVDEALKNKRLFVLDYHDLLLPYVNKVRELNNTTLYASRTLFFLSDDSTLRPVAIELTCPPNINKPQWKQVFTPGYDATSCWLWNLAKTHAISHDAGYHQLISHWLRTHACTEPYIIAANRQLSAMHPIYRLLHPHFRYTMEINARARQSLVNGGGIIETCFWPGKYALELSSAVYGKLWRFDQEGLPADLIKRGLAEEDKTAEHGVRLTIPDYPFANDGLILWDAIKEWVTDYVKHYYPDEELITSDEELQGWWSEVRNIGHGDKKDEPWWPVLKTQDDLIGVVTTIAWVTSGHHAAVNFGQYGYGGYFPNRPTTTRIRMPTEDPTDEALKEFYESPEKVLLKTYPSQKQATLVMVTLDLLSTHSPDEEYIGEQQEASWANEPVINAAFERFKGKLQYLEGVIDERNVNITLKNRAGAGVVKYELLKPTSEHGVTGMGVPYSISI

[4] = molecular target: T2, LOX6; experiment: LOX6 activity, oxygen electrode (polarography); assay type: biochemical; parameters: made in house; host or cells: E. coli Nico21(DE3), pEXP5-NT/TOPO; details: for activity at 280 µM: enzyme incubated with 280 µM chemical (1/10 vol of 2.8 mM), injected into 30 µM LeA, 50 mM Tris-HCl pH 7.2, vs solvent control, read-out: Polarography Relative Activity (%) LOX6; for Increase of LOX6-catalyzed oxygen consumption: 1 mM cation, LeA 30 µM, pH 8.0; for Relative Activity (%) LOX6: 1 mM metal salt, LeA 30 µM in 20 mM HEPES pH 8.0, oxygen consumption vs control without metal

| Relative Activity (%) LOX3 [1] [%] | Relative Activity (%) LOX6 [2] [%] | Relative Activity (%) LOX2 [3] [%] | Relative Activity (%) LOX6 [4] | Compound | Photometry Relative activity (%) LOX6 [2] [%] | Photometry Relative activity (%) LOX2 [3] [%] | activity at 280 µM [4] [%] | further results |
| --- | --- | --- | --- | --- | --- | --- | --- | --- |
|  |  |  |  | CCC=CCC1C(=O)C=CC1CCCCCCCC(=O)O (stereo not drawn) [12-OPDA, cis-(+)-12-oxophytodienoic acid] | 59 ± 10 | 49 ± 10 | 50 ± 10 | IC50 [1]: 130 ± 31 µM; Ki [1]: 13 µM; Mode of inhibition [1]: non-competitive or mixed; Photometry Relative activity (%) LOX3 [1]: 35 ± 5%; IC50 [2]: 280 to 338 µM; Mode of inhibition ([2]; 226 µM): non-competitive; IC50 [3]: 280 to 338 µM; Mode of inhibition [3]: non-competitive |
| 104±2 | 107±11 | 550±40 | 121 ± 15% | [Ca+2].[Cl-].[Cl-] [CaCl2] |  |  |  | Increase of LOX6-catalyzed oxygen consumption [4]: 21% |
|  |  |  |  | CC/C=C\CC1C(=O)CCC1CC(=O)OC (stereo not drawn) [MJ, methyl jasmonate] | 86 ± 6 | 62 ± 10 | 94 ± 6 | Ki [1]: 295 µM; Mode of inhibition [1]: non-competitive; Mode of inhibition [3]: competitive |
| 108±4 | 123±10 | 188±28 | 142 ± 15% | [Cl-].[Cl-].[Mg+2] [MgCl2] |  |  |  | Increase of LOX6-catalyzed oxygen consumption [4]: 42% |
|  |  |  |  | O=C(O)c1ccccc1O [SA, salicylic acid] |  |  | 103 ± 5 |  |
|  |  |  |  | O=C(O)/C=C/CCCCCCCCC(=O)O [TA, traumatic acid] | 100 ± 9 | 105 ± 5 | 101 ± 12 | Photometry Relative activity (%) LOX3 [1]: 103 ± 4% |

| Compound | Relative Activity (%) LOX3 [1] [%] | Relative Activity (%) LOX6 [2] [%] | Relative Activity (%) LOX2 [3] [%] | Relative Activity (%) LOX6 [4] | Photometry Relative activity (%) LOX6 [2] [%] | Photometry Relative activity (%) LOX2 [3] [%] | activity at 280 µM [4] [%] | further results |
| --- | --- | --- | --- | --- | --- | --- | --- | --- |
| O=S(=O)([O-])[O-].[Cd+2] [CdSO4] | 63±3 | 40±10 | 950±240 | no activity |  |  |  | LOX2 activity in presence of Cd2+ ([3]; 40 µM Cd2+, listed as Cd2+): 2.3 ± 0.3 nmol/s/mg; LOX2 activity in presence of Cd2+ ([3]; 40 µM Cd2+, listed as Cd^2+): 2.3 ± 0.3 nmol/s/mg; LOX2 activity in presence of Cd2+ ([3]; 150 µM Cd2+, listed as Cd2+): 5.2 ± 0.9 nmol/s/mg; LOX2 activity in presence of Cd2+ ([3]; 150 µM Cd2+, listed as Cd^2+): 5.2 ± 0.9 nmol/s/mg; LOX2 activity in presence of Cd2+ ([3]; 1180 µM Cd2+, listed as Cd2+): 5.7 ± 0.7 nmol/s/mg; LOX2 activity in presence of Cd2+ ([3]; 1180 µM Cd2+, listed as Cd^2+): 5.7 ± 0.7 nmol/s/mg |
